Values after ≈ are worked out from the molar mass of the structure shown. Where a name gives a salt, the structure may show the parent alone. Read-outs that look alike come from different tables or passages of the source.
Experiment: Solubility at different pH values (37° C.)
Format: physicochemical
Details: for solubility: aqueous buffer, read-out: Solubility (average, mg/ml); for Solubility in the pH-range of human muscle and subcutaneous tissues: pH 6.8-7.5

Row | SMILES | solubility (pH = 3, 37° C.) | solubility (pH = 4.5, 37° C.) | solubility (pH = 5.5, 37° C.) | solubility (pH = 7.5, 37° C.) | Solubility in the pH-range of human muscle and subcutaneous tissues | Solubility category (USP) (pH = 3, 37° C.) | Solubility category (USP) (pH = 4.5, 37° C.) | Solubility category (USP) (pH = 5.5, 37° C.) | Solubility (average, mg/ml) (pH = 6.8, 37° C.) | Solubility category (USP) (pH = 6.8, 37° C.) | Solubility category (USP) (pH = 7.5, 37° C.) | solubility (pH = 4.4, 37° C.) | solubility (pH = 6.8, 37° C.) | Solubility category (USP) (pH = 4.4, 37° C.) | Solubility (average, mg/ml) (pH = 7.4, 37° C.) | Solubility category (USP) (pH = 7.4, 37° C.)
1 | CN(C)C(=O)N[C@H]1CC[C@H](CCN2CCN(c3cccc(Cl)c3Cl)CC2)CC1 [Cariprazine hydrochloride] | 6 mg/mL | 13.8 mg/mL | 0.27 mg/mL | 0.001 mg/mL | practically insoluble | Slightly soluble | Sparingly soluble | Very slightly soluble | 0.005 mg/mL | Practically insoluble | Practically insoluble | – | – | – | – | –
2 | CN(C)C(=O)N[C@H]1CC[C@H](CCN2CCN(c3cccc(Cl)c3Cl)CC2)CC1 [Cariprazine base, trans-N-{4-[2-[4-(2,3-dichlorophenyl)-piperazin-1-yl]-ethyl]-cyclohexyl}-N′,N′-dimethylurea] | 0.204 mg/mL (≈ 477 µM) | – | – | – | practically insoluble | Very slightly soluble | – | – | – | Practically insoluble | – | 0.357 mg/mL (≈ 835 µM) | 0.0007 mg/mL (≈ 1.64 µM) | Very slightly soluble | not detectable | Practically insoluble

Source: patent US20260263448A1, “CONTROLLED RELEASE INJECTABLE CARIPRAZINE FORMULATION” (Richter Gedeon Nyrt., priority 2021, published 2026)
